Test results published in PubChem BioAssay (NCI).
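Briefly, cells in 96-well plates were exposed to five compound concentrations for 48 h, and endpoints were estimated by linear interpolation. GI50 = concentration required for 50% inhibition of growth. Definition used: TGI = concentration required for complete inhibition of growth.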

Tests used:
Experiment in all cases: inhibition of tumour cell growth, NCI panel, 48 h
HCT-15 colon = tested on: HCT-15 colon
HOP-92 NSCLC = tested on: HOP-92 NSCLC
MOLT-4 leukemia = tested on: MOLT-4 leukemia
NCI-H23 lung = tested on: NCI-H23 lung
SF-295 CNS = tested on: SF-295 CNS
SNB-75 CNS = tested on: SNB-75 CNS
TK-10 renal = tested on: TK-10 renal
UACC-257 melanoma = tested on: UACC-257 melanoma
UACC-62 melanoma = tested on: UACC-62 melanoma
HCC-2998 colon = tested on: HCC-2998 colon

SMILES	TGI (HCT-15 colon) [µM]	TGI (HOP-92 NSCLC) [µM]	TGI (MOLT-4 leukemia) [µM]	TGI (NCI-H23 lung) [µM]	TGI (SF-295 CNS) [µM]	TGI (SNB-75 CNS) [µM]	TGI (TK-10 renal) [µM]	TGI (UACC-257 melanoma) [µM]	TGI (UACC-62 melanoma) [µM]	TGI (HCC-2998 colon) [µM]	GI50 (HCC-2998 colon) [µM]	GI50 (HCT-15 colon) [µM]	GI50 (HOP-92 NSCLC) [µM]	GI50 (MOLT-4 leukemia) [µM]	GI50 (NCI-H23 lung) [µM]	GI50 (SF-295 CNS) [µM]	GI50 (SNB-75 CNS) [µM]	GI50 (TK-10 renal) [µM]	GI50 (UACC-257 melanoma) [µM]	GI50 (UACC-62 melanoma) [µM]
CCOC(=O)c1cnc2[nH]c(=O)c3ccccc3n2c1=O	> 100	> 100	> 100	> 100	> 100	> 100	> 100	> 100	> 100	–	–	–	–	–	–	–	–	–	–	–
O=C1OCC(C(=O)c2cccc(O)c2)C1=O (centres undefined)	> 100	> 100	–	> 100	> 100	> 100	> 100	> 100	> 100	> 100	–	–	–	–	–	–	–	–	–	–
COc1cc2ccn3c4cc(OC)c(OC)cc4cc3c2cc1OC	–	> 100	> 100	> 100	> 100	> 100	> 100	> 100	> 100	> 100	–	–	–	–	–	–	–	–	–	–
CC(CC(=O)O)(CC(=O)O)C(=O)O	> 100	> 100	> 100	> 100	> 100	> 100	> 100	> 100	> 100	> 100	–	–	–	–	–	–	–	–	–	–
O=C(CCCCCCCCC(=O)OCC1OC(n2cnc3c(=O)[nH]cnc32)C(O)C1O)OCC1OC(n2cnc3c(=O)[nH]cnc32)C(O)C1O (centres undefined)	> 100	> 100	> 100	> 100	> 100	> 100	> 100	> 100	> 100	> 100	–	–	–	–	–	–	–	–	–	–
CN1C(=O)c2cc(Cl)nc3c(NC(=O)c4cccc(Cl)c4)c(Cl)c(NC(=O)c4cccc(Cl)c4)c1c23	1.94	3.41	5.21	5.92	11.6	2.84	5.84	3.55	3.76	3.41	1.76	0.581	1.71	2.07	2.14	2.87	1.45	2.28	1.91	1.92
CCOP(=O)(OCC)/C(C#N)=C\c1cccc2ccccc12	> 100	93.6	> 100	> 100	> 100	88.5	> 100	> 100	> 100	> 100	–	–	–	–	–	–	–	–	–	–
CC1=C(C#N)C(N)=C2C(C)=C(C#N)C(N)=C12	> 100	> 100	> 100	> 100	> 100	> 100	> 100	> 100	> 100	> 100	–	–	–	–	–	–	–	–	–	–
COc1c(O)c(OC)c(C(=O)/C=C/c2ccccc2)c(O)c1OC	> 100	81	> 100	–	> 100	> 100	> 100	> 100	–	> 100	–	–	–	–	–	–	–	–	–	–
CC1CCC(O)C(C(O)CC2CC(=O)N(C)C(=O)C2)C1 (centres undefined)	–	> 100	> 100	> 100	> 100	> 100	> 100	> 100	> 100	> 100	–	–	–	–	–	–	–	–	–	–
CN1CCCC1c1cccnc1.O=C(O)c1ccccc1O.O=C([O-])c1ccccc1[OH2+].O=C([O-])c1ccccc1[OH2+].O=C([O-])c1ccccc1[OH2+].[Mn+2] (centres undefined)	> 100	> 100	> 100	> 100	> 100	> 100	> 100	> 100	> 100	–	–	> 100	> 100	19.9	> 100	> 100	> 100	> 100	37.6	> 100
O=C1c2cccnc2C(=O)c2c1c(C(=O)OCCCN1CCOCC1)c1ccccn21	–	0.929	12.5	–	0.0698	0.015	5.57	0.0758	0.0244	3.15	< 0.01	–	0.151	0.135	< 0.01	0.0167	< 0.01	0.0292	0.0182	< 0.01
CCCCCCCCCCCCCCCC[N+]1(CC)CCCC1	5.49	1.33	2.19	–	–	1.11	1.21	3.76	–	–	–	1.35	0.227	0.486	–	–	0.247	0.266	1.58	–
CC(C)c1ccc(/C=C(\NC(=O)c2ccccc2)c2nc3ccccc3[nH]2)cc1	> 100	> 100	69.9	75.3	–	> 100	> 100	> 100	> 100	–	–	–	–	–	–	–	–	–	–	–
CC1(CC(=O)O)OC2CCCCCC2O1 (centres undefined) (tested in a mixture with another compound)	> 100	> 100	> 100	> 100	> 100	> 100	> 100	> 100	> 100	–	–	–	–	–	–	–	–	–	–	–
COc1ccc([Se]c2ccc(OC)cc2OC)c(OC)c1	–	16.3	> 100	> 100	33.7	36.9	> 100	> 100	> 100	–	–	–	–	–	–	–	–	–	–	–
C/C(=N\NS(=O)(=O)c1ccc(C)cc1)c1ccc[n+]([O-])n1	> 100	> 100	> 100	> 100	> 100	> 100	–	> 100	> 100	> 100	–	–	–	–	–	–	–	–	–	–
CCOC(=O)/C=C1\Nc2ccccc2C(c2ccccc2)=NC1OC(C)=O (centres undefined)	> 100	> 100	> 100	> 100	> 100	> 100	–	> 100	> 100	> 100	–	–	–	–	–	–	–	–	–	–
Oc1cccc(-c2nc3ccccc3s2)c1	> 100	> 100	> 100	69.6	86.7	61.8	–	> 100	> 100	–	–	–	–	–	–	–	–	–	–	–
O=C(OCc1ccccc1CN1CCOCC1)c1ccc(Br)cc1	> 100	> 100	–	> 100	–	> 100	> 100	> 100	> 100	> 100	–	–	–	–	–	–	–	–	–	–
CC1OC(=O)N(CCCC=C2SCCCS2)C1=O (centres undefined)	> 100	> 100	> 100	> 100	> 100	> 100	> 100	> 100	> 100	–	–	–	–	–	–	–	–	–	–	–
